Experimental data from PMC7954794, “Protein context shapes the specificity of SH3 domain-mediated interactions in vivo” (Nature Communications, 2021).

Key:
BEM1-1 = test: DHFR-PCA on solid medium, bait BEM1-1 (Fig. 1B); type: cell-based, Saccharomyces cerevisiae; details: bait BEM1-1, label = prey; for medrep (log2 median colony size normalized to plate background, PCA score): 2-8 replicates; for Ratio (SH3-deleted/WT medrep): only significant differences showed, PPIs completely lost have a ratio of 0.1 and the gained PPIs 2.5
Text: (§1) Supplement 41467_2021_21873_MOESM8_ESM.xlsx, sheet "Fig1B" | column: medsize; medrep; Ratio; Score

[1] = system: 575 putative partners (preys) of 22 WT SH3-containing proteins; test: DHFR-PCA on solid medium, WT and SH3-deleted baits (Fig. 1B); type: cell-based, Saccharomyces cerevisiae; parameters: key to Score: 0: SH3-independent; 1: SH3-dependent PPIs; 2: SH3-inhibited PPIs; details: for medrep (log2 median colony size normalized to plate background, PCA score): label = prey
Text: To assess the requirement of SH3 domains for PPIs in vivo, we first measured binary interactions between 22 WT SH3-containing proteins (Supplementary Fig. 1A) as baits and 575 putative partners from their interconnected signaling networks using the dihydrofolate reductase protein–fragment complementation assay (DHFR-PCA) in the budding yeast Saccharomyces cerevisiae. About 33% (202/607) of the PPIs detected were described before, mostly by direct methods (Supplementary Fig. 1B, C)[11]. We repeated the experiments with baits in which the SH3s were individually replaced with a flexible linker by genome editing (SH3 domain deletion/stuffing, Fig. 1A). The stuffer DNA sequence ([…]) codes for a small flexible poly-Gly with Ser peptide ([…]) that is inspired by previous experiments[12],[13]. About a third of the SH3-containing protein interactome is qualitatively or quantitatively SH3-dependent (171 PPIs out of 607, Fig. 1B and Supplementary Fig. 1B, C). We validated the vast majority of the quantitative changes in low-throughput experiments and excluded that this is simply due to changes in protein abundance in most cases (Supplementary Fig. 1D–G). SH3-binding motifs[14] are more frequent in the SH3-dependent PPI partners when compared to sequences from random proteins, SH3-independent PPI partners or PPI partners that are stronger or gained following SH3 deletions (p values = 1.5 × 10^−17, 0.0038 and 2.1 × 10^−08, respectively; Mann–Whitney test, one-tailed, Fig. 1C). The changes we measure are therefore enriched for PPIs that depend on the direct interactions of the domains with the PPI partners.
The complete list of strains, primers, and gRNAs used in this study can be found in Supplementary Tables 1–3. All constructed yeast strains were validated by polymerase chain reaction (PCR) and confirmed by Sanger sequencing of the locus of interest. Bait strains for the DHFR-PCA experiments were constructed as follows. The genes of interest were fused at their genomic 3′ end by replacing the stop codon with a linker ([…]), the DHFR F[1,2] followed by a smaller linker (GGGGS), a 1× FLAG tag ([…]) and the NATMX4 resistance cassette via homologous recombination (all amplified from pAG25-DHFR[1,2]-linker-FLAG). The set of 615 prey strains (DHFR F[3] fusions in the BY4742 background) were retrieved from the Yeast Protein Interactome Collection[43] with the exception of 73 that were reconstructed (Supplementary Tables 1 and 2). Knockout strains were taken from the yeast knockout collection except for ABP1, BEM1, BZZ1, and SLA1, which were reconstructed by replacing the ORFs with the NATMX4 resistance cassette by homologous recombination in the BY4741 background.
Yeast SH3 domain genomic sequences were replaced by CRISPR–Cas9 genome editing. Each SH3 domain (as defined by the SMART database V8.0 except for Ysc84 SH3 (as defined by PROSITE), see Source Data for all SH3 sequences and Supplementary Table 1 for primers used) was specifically targeted by one gRNA[46]. Yeast competent cells were co-transformed with a pCAS plasmid (Addgene plasmid 60847[47]) expressing both the gRNA of interest and Streptococcus pyogenes Cas9[46] and a donor DNA sequence (stuffer) with 60 bp homology arms surrounding the SH3 DNA sequence. The Stuffer DNA was either PCR amplified or digested from a plasmid. The stuffer DNA sequence ([…]) codes for a small flexible linker ([…]) inspired by protein linkers used in structural biology[12],[13]. This type of linker is frequently used for fusing proteins without affecting the structure of the linked proteins.
The overall DHFR-PCA pipeline is based on Tarassov et al.[43] and the procedures have also been published as a visualized protocol. The screens were performed with robotically manipulated pin tools (BM5-SC1, S&P Robotics Inc.). First, the preys were cherry-picked from 96-well plates to omnitrays in a 384 format on YPD + HPH solid media. […]

ABP1 = test: DHFR-PCA on solid medium, bait ABP1 (Fig. 1B); type: cell-based, Saccharomyces cerevisiae; details: bait ABP1, label = prey; 2-4 replicates
Text: as §1

BBC1 = test: DHFR-PCA on solid medium, bait BBC1 (Fig. 1B); type: cell-based, Saccharomyces cerevisiae; details: bait BBC1, label = prey; for medrep (log2 median colony size normalized to plate background, PCA score): 2-4 replicates
Text: as §1

BEM1-2 = test: DHFR-PCA on solid medium, bait BEM1-2 (Fig. 1B); type: cell-based, Saccharomyces cerevisiae; details: bait BEM1-2, label = prey; for medrep (log2 median colony size normalized to plate background, PCA score): 2-8 replicates; for Ratio (SH3-deleted/WT medrep): only significant differences showed, PPIs completely lost have a ratio of 0.1 and the gained PPIs 2.5
Text: as §1

BOI1 = test: DHFR-PCA on solid medium, bait BOI1 (Fig. 1B); type: cell-based, Saccharomyces cerevisiae; details: bait BOI1, label = prey
Text: as §1

BOI2 = test: DHFR-PCA on solid medium, bait BOI2 (Fig. 1B); type: cell-based, Saccharomyces cerevisiae; details: bait BOI2, label = prey
Text: as §1

NCK2 = NCK2 phase separation in vitro, 60 mM NaCl, Coomassie quantification (Fig. 5E); parameters: species or system mouse; details: Amount/Total
Procedure: E. coli BL21 (DE3) cells were transformed with mNCK2 constructs in the pET-30b vector and grown overnight at 37 °C in LB with 100 µg/ml kanamycin. The next day, cultures were expanded in LB with kanamycin until they reached their exponential growth phase (OD600 of around 1.0). Protein production was then induced by the addition of 1 mM IPTG (Bio Basic) and incubation at 16 °C overnight with agitation. Cultures were pelleted with a centrifugation step (3200g at 4 °C, 30 min), washed with ice-cold PBS, and pellets were kept at −80 °C. Bacteria were thawed in GST buffer (20 mM Tris-HCl pH 7.5, 0.5 M NaCl, 1 mM EDTA, and 1 mM DTT (Millipore Sigma)) with cOmplete protease inhibitors (Millipore Sigma) and disrupted with sonication. Lysates were then centrifuged at 20,000g for 20 min at 4 °C and the supernatant loaded to a GSTrap FF 1 mL column (GE Healthcare). Following a washing step with 10 mL GST–Buffer, the GST-Tagged proteins were eluted with 15 mM GSH (Bio-basic) and cleaved in a solution using purified recombinant His-tagged TEV protease (Thermo Fisher Scientific). Tag-free NCK2 proteins were further purified using a 1 ml HisTrap FF column (GE Healthcare) to remove free His-tagged GST and TEV as well as remaining impurities. The purified proteins were concentrated with Amicon 10 K filters (Millipore Sigma) and their concentration assessed using Coomassie and BCA assays (Thermo Fisher Scientific).
Purified NCK2 proteins were diluted in GST buffer to identical concentrations. At 500 mM NaCl present in this buffer, all NCK2 constructs were completely soluble. Phase transition was initiated by dilution in imidazole buffer (10 mM imidazole (Bio Basic) pH 7.0, 1 mM DTT, 1 mM EGTA (Millipore Sigma), 1 mM MgCl2, 2.5% Glycerol (Bioshop Canada), 3% Dextran (Millipore Sigma)) containing various amount of NaCl so that the final concentration of NaCl would correspond to those in Supplementary Fig. 7B. For all the other experiments, the phase transition of NCK2 proteins was assessed at 60 mM NaCl. NCK2 at 8 μg/μL (40 μg in 5 μL) was added to 35 μL imidazole buffer in a plastic 96-well plate that had first been pretreated with a 0.2% bovine serum albumin solution to reduce nonspecific binding. The plate assay was then incubated overnight (24 h) at 4 °C before imaging. Phase-contrast images of each well were acquired using a Zeiss Axio Vert.A1 inverted microscope with an LD A-Plan 40×/0.55 Ph1 objective (Zeiss) in Zen Blue software (version 2.3.69.1000). After imaging, the soluble protein fraction (supernatant) was recovered for sodium dodecyl sulfate polyacrylamide gel electrophoresis analysis. Protein droplets attached at the bottom of the well (pellet) were washed once with imidazole buffer with 60 mM NaCl and then solubilized in Laemmli buffer. The pellets to supernatant fractions were used to quantify phase transition at 60 mM NaCl (7 replicates) via Coomassie protein quantification. The involvement of weak hydrophobic interactions in NCK2 driven phase transition was assessed using 1,6-Hexanediol (Millipore Sigma) at 60 mM NaCl. Imidazole buffer containing 0%, 1%, 5%, and 10% 1,6-Hexanediol was first prepared and phase transition was initiated and analyzed as described above. Finally, the competition of SH3-2 dependent homotypic NCK2 interaction with an SH3-2 binding peptide was assessed in the presence of 5, 15, 45, 90, 150, or 300 μM PAK1 peptide ([…]) in imidazole buffer with 60 mM NaCl. The impact of PAK1 peptide addition was observed via phase contrast microscopy as described above.

[2] = bait SLA1-3, DHFR-PCA, Replicates 4 (2 for YCR009C, YDR388W, YIL033C)
[3] = only significant differences showed, PPIs completely lost have a ratio of 0.1 and the gained PPIs 2.5

Substance: YMR026C
- medrep (log2 median colony size normalized to plate background, PCA score) (BEM1-1): 3.625
- Ratio (SH3-deleted/WT medrep) (BEM1-1): 2.5

Substance: YGL206C
- medrep (log2 median colony size normalized to plate background, PCA score) [1, 2]: 4.577
- Score ([1]; bait SLA1-3, label = prey): 0
- medrep (log2 median colony size normalized to plate background, PCA score) (ABP1): 4.275
- medrep (log2 median colony size normalized to plate background, PCA score) (BBC1): 1.387
- Ratio (SH3-deleted/WT medrep) (BBC1; [3]): 0.4969
- medrep (log2 median colony size normalized to plate background, PCA score) (BEM1-2): 1.4327
- Ratio (SH3-deleted/WT medrep) (BEM1-2): 2.5
- medrep (log2 median colony size normalized to plate background, PCA score) (BOI1; 3-8 replicates): 1.512
- Ratio (SH3-deleted/WT medrep) (BOI1; [3]): 0.1

Substance: YDR265W
- medrep (log2 median colony size normalized to plate background, PCA score) (BEM1-1): 2.347
- Ratio (SH3-deleted/WT medrep) (BEM1-1): 2.5

Substance: YMR109W (PMFEAAYDFPGSGSPSELPLKKGDVIYITREEPSGWSLGKLLDGSKEGWVPTAYMKPHS)
- medrep (log2 median colony size normalized to plate background, PCA score) ([1]; bait SLA1-2, DHFR-PCA, Replicates 4 (2 for YCR009C, YDR388W)): 3.8664
- Score ([1]; bait SLA1-2, label = prey): 1
- Ratio (SH3-deleted/WT medrep) ([1]; bait SLA1-2, label = prey, only significant differences shown, PPIs completely lost have a ratio of 0.1, gained PPIs 2.5): 0.1
- medrep (log2 median colony size normalized to plate background, PCA score) [1, 2]: 3.8664
- Score ([1]; bait SLA1-3, label = prey): 0
- medrep (log2 median colony size normalized to plate background, PCA score) (ABP1): 4.62
- medrep (log2 median colony size normalized to plate background, PCA score) (BBC1): 5.231
- medrep (log2 median colony size normalized to plate background, PCA score) (BEM1-1): 1.531
- Ratio (SH3-deleted/WT medrep) (BEM1-1): 0.1
- medrep (log2 median colony size normalized to plate background, PCA score) (BEM1-2): 1.531
- Ratio (SH3-deleted/WT medrep) (BEM1-2): 0.1
- medrep (log2 median colony size normalized to plate background, PCA score) (BOI2; 3-8 replicates): 1.504
- Ratio (SH3-deleted/WT medrep) (BOI2; [3]): 0.1

Substance: NCK2
- Ratio (NCK2; Phase Pellet, replicate 1): 0.2548
- Ratio (NCK2; Phase Pellet, replicate 2): 0.3742
- Ratio (NCK2; Phase Pellet, replicate 3): 0.4878
- Ratio (NCK2; Phase Pellet, replicate 4): 0.2596
- Ratio (NCK2; Phase Pellet, replicate 5): 0.2564
- Ratio (NCK2; Phase Pellet, replicate 6): 0.2454
- Ratio (NCK2; Phase Pellet, replicate 7): 0.2712
- Ratio (NCK2; Phase Soluble, replicate 1): 0.7452
- Ratio (NCK2; Phase Soluble, replicate 2): 0.6258
- Ratio (NCK2; Phase Soluble, replicate 3): 0.5122
- Ratio (NCK2; Phase Soluble, replicate 4): 0.7404
- Ratio (NCK2; Phase Soluble, replicate 5): 0.7436
- Ratio (NCK2; Phase Soluble, replicate 6): 0.7546
- Ratio (NCK2; Phase Soluble, replicate 7): 0.7288

Substance: YJL210W
- medrep (log2 median colony size normalized to plate background, PCA score) (BEM1-1): 1.8146
- Ratio (SH3-deleted/WT medrep) (BEM1-1): 2.5
